Measurements from patent publication US11576979B2, “Pyrrolobenzodiazepine prodrugs and antibody conjugates thereof” (GENENTECH, INC., priority 2016, dated 2023).
pIC50: −log10 of the molar value.

Tests used:
[1] = GSH adduct formation and stability of quinones; type: physicochemical; settings: 15 mM GSH; for % Rem. (percent remaining after 3 hours): 25 uM, pH 7.0, 37 C; for Degr (degradation) / GSH Adduct: 3 hours
Method: For degradation analysis, the compounds were incubated at 25 μM with 15 mM GSH in 200 mM Tris buffer pH 7.0 containing 5% methanol at 37° C. for 3 hours. The control incubations were conducted without GSH. The samples were analyzed by LC/MS on Sciex TripleTOF 5600 on a Hypersil Gold C18 column (100×2.1, 1.9 μM, Thermo Scientific). The column was eluted by a gradient of buffer A (0.1% formic acid in 10 mM ammonium acetate) to buffer B (0.1% formic acid in 10 mM ammonium acetate in 90% acetonitrile), 5% B 0-0.5 min, 5-25% B 0.5-8 min, 25-75% B 8-13 min, and 75-95% B 13-13.5 min, 95% B 13.5-14.5 min, 95-5% B 14.5-15 min at 0.4 mL/min. All products were separated and characterized by LC/MS/MS in a positive ESI ion mode. Full scan accurate mass peak areas were used to estimate relative abundance of each component.

DT Diaphorase = molecular target: T1, DT Diaphorase (Homo sapiens, UniProt P15559); test: in vitro DT diaphorase activated drug release assay (NADPH depletion); type: biochemical; settings: 90 min
T1 construct: purchased Sigma D1315
T1 sequence (P15559 whole entry): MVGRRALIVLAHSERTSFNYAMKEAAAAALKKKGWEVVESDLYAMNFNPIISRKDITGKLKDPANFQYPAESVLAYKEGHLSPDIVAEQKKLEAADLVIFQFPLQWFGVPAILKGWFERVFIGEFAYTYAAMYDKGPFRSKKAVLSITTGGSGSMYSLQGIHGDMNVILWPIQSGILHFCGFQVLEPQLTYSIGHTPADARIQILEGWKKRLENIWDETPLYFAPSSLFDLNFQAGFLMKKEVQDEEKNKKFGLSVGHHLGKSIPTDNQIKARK
Method: An in vitro DT diaphorase activated drug release assay was used to measure NADPH depletion. DT diaphorase activated release of Norfloxacin and Payload (PBD) was measured by the in vitro depletion of NADPH. The assay method was modified from the absorbance measurement of NADPH at A340 (Osman et. al, Chemico-Biological Interactions 147 (2004) 99-108) due to the interference of compounds. The depletion of NADPH was measured by monitoring the decrease of fluorescence intensity of NADPH at 480 nm after being excited at […]. […] Prior to assay, dilute the stock to 1 mM as the 5× working solution; (5) DT Diaphorase specific Inhibitor: prepare 40 mM stock of Dicumarol (Sigma, Cat #M1390-5G, MW=336.29) in 0.13 N NaOH, stored at 4° C. Dilute the stock to 250 uM as the 5× working solution; (6) Compounds: dilute the Norfloxacin and PBD conjugated compounds in assay buffer to 250 uM as the 5× working solution; and (7) 384 well black plate with clear bottom. For the assay procedure: (1) The reaction mix containing 0.5 uM DT-D, 50 uM compound, […] NADPH was set up in a 384 well plate at 50 ul/well. For the control with DT Diaphorase inhibitor, Dicumarol was added in the reaction mix at final 50 uM for each compound. Reaction mix containing NADPH and compound only was also added as the baseline controls. The DT Diaphorase was added in the last step; and (2) The reaction mixes were incubated at room temperature for 5, 30, 90 min. The fluorescence intensity (RFU) of DNAPH was recorded on M1000 plate reader (Tecan) with excitation at 340 nm and emission at 480 nm. For data analysis, data was analyzed and plotted using Prism GraphPad 6. The depletion of NADPH was calculated by the formula below at reaction time point at 90 min wherein: % NADPH depletion=[…].

[2] = Disulfide cleavage by glutathione (GSH), LC/MS; type: physicochemical; settings: 15 uM compound, 4 mM GSH, pH 7.0, 37 C
Method: (§1) For disulfide cleavage determination, the compounds were incubated at 15 μM with 0.2 mM cysteine or 4 mM GSH in 100 mM Tris buffer pH 7.0 containing 5% methanol at 37° C. Aliquots were taken at specified time points and the samples were analyzed by LC/MS on Sciex TripleTOF 5600 on a Hypersil Gold C18 column (100×2.1, 1.9 Thermo Scientific). The column was eluted by a gradient of buffer A (0.1% formic acid in 10 mM ammonium acetate) to buffer B (0.1% formic acid in 10 mM ammonium acetate in 90% acetonitrile), 5% B 0-0.5 min, 5-25% B 0.5-8 min, 25-75% B 8-13 min, and 75-95% B 13-13.5 min, 95% B 13.5-14.5 min, 95-5% B 14.5-15 min at 0.4 mL/min. All products were separated and characterized by LC/MS/MS in a positive ESI ion mode. All analytes had the protonated molecular MH+ as the major species with little source fragmentation. Full scan accurate mass peak areas were used to estimate relative abundance of each component.

[3] = Disulfide cleavage by cysteine, LC/MS; type: physicochemical; settings: 15 uM compound, 0.2 mM cysteine, pH 7.0, 37 C
Method: as §1

UACC-257 = test: CellTiter-Glo toxicity, 4 days (Example 9); type: cell-based; settings: Homo sapiens, UACC-257, 96 h, 4 days of drug incubation; Table 7A
Method: (§2) The toxicity of various PBD monomer disulfide prodrugs and PBD dimer disulfide prodrugs was evaluated on UACC-257, Igrov-1 and A2058 cell lines. Cells were seeded in 384-well plate and treated with drug 24 hours later. After 4 days of drug incubation, the cell viability was determined using Promega CellTiter-Glo luminescent reagent, which measures ATP level (an indirect measure of cell number). The luminescent intensity was measured on PerkinElmer Envision reader. The relative cell viability was calculated by normalizing to non-drug treatment control and was graphed using KleidaGraph software package. IC50 value was determined as the concentration to obtain 50% of the maximum cell killing.

A2058 = test: CellTiter-Glo toxicity, 4 days (Example 9); type: cell-based; settings: Homo sapiens, A2058, 96 h, 4 days of drug incubation; Table 7A
Method: as §2

Igrov-1 = test: CellTiter-Glo toxicity, 4 days (Example 9); type: cell-based; settings: Homo sapiens, IGROV-1, 96 h, 4 days of drug incubation; Table 7A
Method: as §2

WSU-DLCL2 = test: CELLTITER GLO cell proliferation assay (Example 6); type: cell-based; settings: Homo sapiens, WSUDLCL2, read-out: IC50 potency WSU-DLCL2, Table 4; data in parenthesis = repeat evaluations
Method: (§3) The toxicity of PBD monomer disulfide prodrugs and diaphorase prodrugs were evaluated against KPL-4, WSU-DLCL2, HCT-116, HCC1395 and Jurkat cell cultures. […] KPL-4 cells further have a high expression of DTD on the order of about 839 nRPKM (where nRPKM refers to normalized reads per Kb of transcript length per million mapped read).
(§4) Potency of the disulfide and DT-diaphorase prodrugs was measured by a cell proliferation assay employing the following protocol (CELLTITER GLO™ Luminescent Cell Viability Assay, Promega Corp.). First, an aliquot of 40 ul of cell culture containing about 8000 cells of WSU-DLCL2 cells (low NQO1 gene and GSH level), 4000 cells of KPL-4 (high NQO1 gene and GSH level), HCT-116 cells, HCC1395 cells or Jurkat cells in RPMI-1640 culture medium (supplemented with 10% fetal bovine serum, 2 mM glutamine, 50 uM cystine, and 0.015 g/L L-methionine) was deposited in each well of a 384-well flat clear bottom white polystyrene tissue culture-treated microplates (Corning, N.Y.). Second, control wells were prepared containing medium with and without cells. Third, compounds with and without disulfide or DT-diaphorase prodrugs (n=3) were added to the experimental wells using ECHO acoustic liquid handling technology (Labcyte Inc, Sunnyvale, Calif.) to create a 10-point dose-response curve in triplicate with 1:3× serial dilution. Fourth, cells were cultured in a humidified incubator set at 37° C. and maintaining an atmosphere of 5% CO2. Fifth, the plates were equilibrated to room temperature for approximately 30 minutes. Sixth, a volume of CELLTITER GLO™ Reagent equal to the volume of cell culture medium present in each well was added. Seventh, the contents were mixed for 10 minutes on an orbital shaker in the dark to induce cell lysis. Eighth, the plate was incubated at room temperature for 30 minutes to stabilize the luminescence signal. Ninth, luminescence was recorded and reported in graphs as % activity where RLU (relative luminescence units) was normalized to controls (no compound control minus no cell control). Tenth, data was plotted as individual points for each replicate (n=3) for each antibody as the mean of luminescence for each set of replicates, with standard deviation error bars.

KPL-4 = test: CELLTITER GLO cell proliferation assay (Example 6); type: cell-based; settings: KPL4, read-out: IC50 potency KPL-4, Table 4; data in parenthesis = repeat evaluations
Method: as §3, §4

CCn1cc(C(=O)O)c(=O)c2cc(F)c(N3CCN(C(=O)OCc4cc5c(n4C)C(=O)C=C(OC)C5=O)CC3)cc21
% Rem. (percent remaining after 3 hours) [1]: 37.6%
Degr (degradation) [1]: yes
NADPH Dep. (NADPH depletion at 90 minutes) (DT Diaphorase): 53.23%

CCn1cc(C(=O)O)c(=O)c2cc(F)c(N3CCN(C(=O)OCc4c(C=O)c5c(n4C)C(=O)C=C(OC)C5=O)CC3)cc21
% Rem. (percent remaining after 3 hours) [1]: 82.1%
Degr (degradation) [1]: yes
NADPH Dep. (NADPH depletion at 90 minutes) (DT Diaphorase): 91.5%

C=C1C[C@H]2C(O)N(C(=O)OCc3ccc(SSC(C)(C)C)cc3)c3cc(OC)c(OC)cc3C(=O)N2C1 (some centres unmarked) [PBD monomer disulfide prodrug 6]
% Remaining at 24 h by GSH [2]: 2.1%
% Remaining at 24 h by Cys [3]: 85.4%
pIC50 (UACC-257): 6.30
pIC50 (A2058): 6.25
pIC50 (Igrov-1): 5.49
pIC50 (WSU-DLCL2): 5.55
pIC50 (KPL-4): 6.09

CCn1cc(C(=O)O)c(=O)c2cc(F)c(N3CCN(C(=O)OCc4c(C(=O)OC)c5c(n4C)C(=O)C=C(OC)C5=O)CC3)cc21
% Rem. (percent remaining after 3 hours) [1]: 100%
NADPH Dep. (NADPH depletion at 90 minutes) (DT Diaphorase): 17.4%

C=C1C[C@H]2C(O)N(C(=O)OCC3(SSCC)CCCC3)c3cc(OC)c(OC)cc3C(=O)N2C1 (some centres unmarked) [PBD monomer disulfide prodrug 5]
% Remaining at 24 h by GSH [2]: 65.9%
% Remaining at 24 h by Cys [3]: 90.9%
pIC50 (UACC-257): 6.05
pIC50 (A2058): 6.40
pIC50 (Igrov-1): 6.12
pIC50 (WSU-DLCL2): 5.87
pIC50 (KPL-4): 5.98

COC1=CC(=O)c2c(c(CO)c(C)n2C)C1=O
% Rem. (percent remaining after 3 hours) [1]: 87%
GSH Adduct [1]: yes
NADPH Dep. (NADPH depletion at 90 minutes) (DT Diaphorase): 74.83%

CCn1cc(C(=O)O)c(=O)c2cc(F)c(N3CCN(C(=O)OCc4c5c(n(C)c4C)C(=O)C=C(OC)C5=O)CC3)cc21
% Rem. (percent remaining after 3 hours) [1]: 50%
Degr (degradation) [1]: yes
NADPH Dep. (NADPH depletion at 90 minutes) (DT Diaphorase): 2.01%

C=C1C[C@H]2C(O)N(C(=O)OCc3ccccc3)c3cc(OC)c(OC)cc3C(=O)N2C1 (some centres unmarked) [PBD monomer control 2, reference compound]
% Remaining at 24 h by GSH [2]: 100%
% Remaining at 24 h by Cys [3]: 100%
pIC50 (UACC-257): < 4.70
pIC50 (A2058): < 4.70
pIC50 (Igrov-1): < 4.70
pIC50 (WSU-DLCL2): < 5.00
pIC50 (KPL-4): < 5.00

CCn1cc(C(=O)O)c(=O)c2cc(F)c(N3CCN(C(=O)OCc4c(C)c5c(n4C)C(=O)C=C(OC)C5=O)CC3)cc21
% Rem. (percent remaining after 3 hours) [1]: 55.5%
Degr (degradation) [1]: yes
NADPH Dep. (NADPH depletion at 90 minutes) (DT Diaphorase): 26.1%

COC1=CC(=O)c2c(c(CO)cn2C)C1=O
% Rem. (percent remaining after 3 hours) [1]: 90%
GSH Adduct [1]: yes
NADPH Dep. (NADPH depletion at 90 minutes) (DT Diaphorase): 95.99%

COC1=C(C)C(=O)c2c(c(C)c(CO)n2C)C1=O
% Rem. (percent remaining after 3 hours) [1]: 92.5%
GSH Adduct [1]: yes
NADPH Dep. (NADPH depletion at 90 minutes) (DT Diaphorase): None

COC1=CC(=O)c2c(c(C=O)c(CO)n2C)C1=O [2-(hydroxymethyl)-5-methoxy-1-methyl-4,7-dioxo-4,7-dihydro-1H-indole-3-carbaldehyde]
% Rem. (percent remaining after 3 hours) [1]: 0%
Degr (degradation) [1]: yes
NADPH Dep. (NADPH depletion at 90 minutes) (DT Diaphorase): 96.92%

CCn1cc(C(=O)O)c(=O)c2cc(F)c(N3CCN(C(=O)OCc4ccc(NC(=O)OCc5cc6c(n5C)C(=O)C=C(OC)C6=O)cc4)CC3)cc21
% Rem. (percent remaining after 3 hours) [1]: 63%
Degr (degradation) [1]: yes
NADPH Dep. (NADPH depletion at 90 minutes) (DT Diaphorase): 94/0

CCn1cc(C(=O)O)c(=O)c2cc(F)c(N3CCN(C(=O)OCc4cn(C)c5c4C(=O)C(OC)=CC5=O)CC3)cc21
NADPH Dep. (NADPH depletion at 90 minutes) (DT Diaphorase): 85.2%

C=C1C[C@H]2C(O)N(C(=O)OCC(C)(C)SSC(C)C)c3cc(OC)c(OC)cc3C(=O)N2C1 (some centres unmarked) [PBD monomer disulfide prodrug 10]
% Remaining at 24 h by GSH [2]: 88.5%
% Remaining at 24 h by Cys [3]: 99.4%
pIC50 (UACC-257): 5.32
pIC50 (A2058): 5.74
pIC50 (Igrov-1): 5.32
